One block for each compound: values may come before it. Calls of active or inactive are those of the source.
Columns and labels:
[1] = (§1) Counterscreen for antagonists of the orexin 1 receptor (OX1R; HCRTR1): Fluorescence-based cell-based high throughput dose response assay to identify antagonists of the parental CHO cell line. [Related pubchem assays (depositor defined):AID434989, AID435008, AID463079, AID485270, AID492963, AID492964, AID492965, AID493232, AID504699, AID504701]; assay type: functional
[2] = tested on: CHO-K1; assay: as §1, with “Homogeneous time resolved fluorescence (HTRF)-based” for “Fluorescence-based”, “cell-based” for “cell-based high throughput”, “CHO-K1” for “CHO”; assay type: functional; settings: Cricetulus griseus;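 also: potency for inhibition of ATP-stimulated IP1 production as antagonists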
[3] = target: T1, Cytochrome P450 1A2 (Homo sapiens, UniProt P05177);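 also: PubChem cytochrome P450 panel assay, CYP1A2 panel member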
T1 sequence (P05177 whole entry): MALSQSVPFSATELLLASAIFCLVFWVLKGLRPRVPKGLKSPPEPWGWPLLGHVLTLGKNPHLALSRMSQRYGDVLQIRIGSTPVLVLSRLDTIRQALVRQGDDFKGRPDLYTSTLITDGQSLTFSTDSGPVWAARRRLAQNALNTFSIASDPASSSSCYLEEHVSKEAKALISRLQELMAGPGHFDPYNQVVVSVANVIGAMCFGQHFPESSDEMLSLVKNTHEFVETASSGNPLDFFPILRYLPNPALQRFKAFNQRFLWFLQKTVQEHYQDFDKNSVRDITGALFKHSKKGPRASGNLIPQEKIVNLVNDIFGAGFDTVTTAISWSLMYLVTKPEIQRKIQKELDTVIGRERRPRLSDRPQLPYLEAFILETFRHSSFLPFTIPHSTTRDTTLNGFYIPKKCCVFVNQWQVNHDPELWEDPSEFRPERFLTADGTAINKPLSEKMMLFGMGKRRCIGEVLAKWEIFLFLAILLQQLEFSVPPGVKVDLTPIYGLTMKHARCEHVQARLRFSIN

[4] = target: T2, Scavenger receptor class B member 1 (Mus musculus, UniProt Q61009); assay: inhibitors of SR-BI mediated HDL lipid uptake, dose response, ldlA[mSR-BI] cells, fluorescence, cherry pick (AID 493194); assay type: functional, cell-based;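 also: cellular uptake of fluorescent DiI-labeled HDL measured as cell fluorescence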
T2 sequence (Q61009 whole entry): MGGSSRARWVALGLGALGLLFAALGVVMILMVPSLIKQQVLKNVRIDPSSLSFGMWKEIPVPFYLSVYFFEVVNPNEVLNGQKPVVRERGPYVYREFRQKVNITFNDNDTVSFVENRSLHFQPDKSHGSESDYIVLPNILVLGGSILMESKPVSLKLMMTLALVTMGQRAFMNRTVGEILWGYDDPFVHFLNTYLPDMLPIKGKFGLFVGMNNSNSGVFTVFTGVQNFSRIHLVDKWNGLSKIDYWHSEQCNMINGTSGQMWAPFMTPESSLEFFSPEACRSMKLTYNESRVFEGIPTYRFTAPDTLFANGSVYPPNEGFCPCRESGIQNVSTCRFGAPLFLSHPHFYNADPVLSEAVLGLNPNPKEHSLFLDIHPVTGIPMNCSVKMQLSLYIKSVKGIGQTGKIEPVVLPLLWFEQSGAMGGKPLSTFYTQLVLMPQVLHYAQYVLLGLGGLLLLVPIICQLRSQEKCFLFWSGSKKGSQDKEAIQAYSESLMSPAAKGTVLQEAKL

[5] = target: T3, Orexin/Hypocretin receptor type 1 (Homo sapiens, UniProt O43613); assay: Homogeneous Time Resolved Fluorescence (HTRF)-based cell-based high throughput dose response assay for antagonists of the orexin 1 receptor (OX1R; HCRTR1). [Related pubchem assays (depositor defined):AID434989, AID435008, AID463079, AID485270, AID492963, AID492964, AID492965, AID493232, AID504717, AID504718]; assay type: functional
T3 sequence (O43613 whole entry): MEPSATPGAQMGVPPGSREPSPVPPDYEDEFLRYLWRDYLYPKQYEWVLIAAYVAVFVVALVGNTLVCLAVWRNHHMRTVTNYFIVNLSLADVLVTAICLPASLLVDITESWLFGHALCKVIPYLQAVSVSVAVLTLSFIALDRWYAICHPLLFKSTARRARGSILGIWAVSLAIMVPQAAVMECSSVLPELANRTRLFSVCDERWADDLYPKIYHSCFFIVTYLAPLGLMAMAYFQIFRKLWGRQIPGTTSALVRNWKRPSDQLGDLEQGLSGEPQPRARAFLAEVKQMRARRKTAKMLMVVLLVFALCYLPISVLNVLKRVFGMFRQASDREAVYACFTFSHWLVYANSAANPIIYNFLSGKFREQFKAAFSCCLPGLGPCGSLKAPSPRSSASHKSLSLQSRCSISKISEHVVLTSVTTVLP

[6] = target: T3, Orexin/Hypocretin receptor type 1; assay: Fluorescence-based cell-based high throughput dose response assay for antagonists of the orexin 1 receptor (OX1R; HCRTR1). [Related pubchem assays (depositor defined):AID434989, AID435008, AID463079, AID485270, AID492963, AID492964, AID492965, AID493232, AID504717, AID504718]; assay type: functional
[7] = target: T4, Neuropeptides B/W receptor type 1 (Homo sapiens, UniProt P48145); assay: GPR7 antagonist potency, late-stage follow-up, cell-based, fluorescence, dose response (AID 463251); assay type: functional
T4 sequence (P48145 whole entry): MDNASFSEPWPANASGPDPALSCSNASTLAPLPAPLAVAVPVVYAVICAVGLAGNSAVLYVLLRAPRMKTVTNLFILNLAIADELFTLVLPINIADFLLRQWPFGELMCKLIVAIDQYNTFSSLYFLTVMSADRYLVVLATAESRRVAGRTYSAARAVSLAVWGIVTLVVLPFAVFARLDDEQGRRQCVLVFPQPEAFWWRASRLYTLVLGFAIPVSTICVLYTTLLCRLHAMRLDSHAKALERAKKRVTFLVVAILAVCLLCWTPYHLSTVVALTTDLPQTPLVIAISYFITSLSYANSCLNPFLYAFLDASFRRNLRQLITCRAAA

[8] = target: Melanin-concentrating hormone receptor 1 (Homo sapiens, UniProt Q99705); assay: Late-stage fluorescence-based counterscreen for antagonists of the G-protein coupled receptor 7 (GPR7): cell-based dose response assay to identify antagonists of the melanin-concentrating hormone receptor 1 (MCHR1). [Related pubchem assays (depositor defined):AID1861, AID1880, AID1952, AID2148, AID2251, AID2257, AID485339]; assay type: functional;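 also: stimulated with 30 nM MCH peptide agonist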
Melanin-concentrating hormone receptor 1, sequence (Q99705 whole entry, the tested form may be a part): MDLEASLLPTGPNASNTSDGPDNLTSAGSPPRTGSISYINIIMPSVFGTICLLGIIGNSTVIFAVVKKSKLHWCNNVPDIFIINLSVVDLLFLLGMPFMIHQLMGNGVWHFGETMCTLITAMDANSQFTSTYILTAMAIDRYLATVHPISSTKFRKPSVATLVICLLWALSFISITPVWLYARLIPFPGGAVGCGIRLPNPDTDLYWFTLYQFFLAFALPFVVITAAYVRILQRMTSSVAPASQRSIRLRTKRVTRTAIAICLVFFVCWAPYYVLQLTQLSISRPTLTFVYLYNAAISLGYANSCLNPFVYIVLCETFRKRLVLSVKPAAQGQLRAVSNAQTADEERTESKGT

[9] = target: NACHT, LRR and PYD domains-containing protein 3 (Homo sapiens, UniProt Q96P20); assay: NALP3 inhibitors in yeast, dose response, luminescent (AID 488799); assay type: functional
NACHT, LRR and PYD domains-containing protein 3, sequence (Q96P20 whole entry, the tested form may be a part): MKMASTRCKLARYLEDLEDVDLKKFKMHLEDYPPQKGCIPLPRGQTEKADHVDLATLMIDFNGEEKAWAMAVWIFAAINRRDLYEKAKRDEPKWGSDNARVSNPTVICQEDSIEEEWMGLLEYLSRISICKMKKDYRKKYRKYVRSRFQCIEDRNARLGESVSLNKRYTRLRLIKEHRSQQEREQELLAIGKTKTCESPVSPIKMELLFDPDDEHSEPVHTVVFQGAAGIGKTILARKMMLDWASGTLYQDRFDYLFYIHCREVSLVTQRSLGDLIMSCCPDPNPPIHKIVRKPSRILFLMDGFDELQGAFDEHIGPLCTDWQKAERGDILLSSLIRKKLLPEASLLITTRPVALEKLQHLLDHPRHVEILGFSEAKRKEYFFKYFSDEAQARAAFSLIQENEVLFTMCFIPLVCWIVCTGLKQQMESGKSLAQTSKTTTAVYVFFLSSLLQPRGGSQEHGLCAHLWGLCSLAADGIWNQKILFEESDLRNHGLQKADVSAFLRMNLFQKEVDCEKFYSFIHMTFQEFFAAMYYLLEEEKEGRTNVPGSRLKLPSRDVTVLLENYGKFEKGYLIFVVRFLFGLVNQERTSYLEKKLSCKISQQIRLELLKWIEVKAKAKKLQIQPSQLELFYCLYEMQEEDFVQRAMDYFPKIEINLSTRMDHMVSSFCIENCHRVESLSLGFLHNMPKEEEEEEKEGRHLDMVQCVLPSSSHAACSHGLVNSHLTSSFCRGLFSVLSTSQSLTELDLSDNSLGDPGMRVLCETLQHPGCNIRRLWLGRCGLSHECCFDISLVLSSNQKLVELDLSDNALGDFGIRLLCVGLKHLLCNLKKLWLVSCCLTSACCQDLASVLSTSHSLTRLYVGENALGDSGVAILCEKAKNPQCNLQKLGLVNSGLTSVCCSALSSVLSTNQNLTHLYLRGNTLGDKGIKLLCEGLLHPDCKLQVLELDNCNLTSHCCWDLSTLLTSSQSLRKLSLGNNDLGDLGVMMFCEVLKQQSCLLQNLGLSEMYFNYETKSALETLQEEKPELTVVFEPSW

[10] = target: T5, Voltage-dependent T-type calcium channel subunit alpha-1H (Homo sapiens, UniProt O95180); assay: Inhibitors of T-Type Calcium Channels. [Related pubchem assays (depositor defined):AID449739, AID463087, AID489005, AID493041, AID504579, AID504584, AID504619, AID504628]; assay type: functional
T5 sequence (O95180 whole entry): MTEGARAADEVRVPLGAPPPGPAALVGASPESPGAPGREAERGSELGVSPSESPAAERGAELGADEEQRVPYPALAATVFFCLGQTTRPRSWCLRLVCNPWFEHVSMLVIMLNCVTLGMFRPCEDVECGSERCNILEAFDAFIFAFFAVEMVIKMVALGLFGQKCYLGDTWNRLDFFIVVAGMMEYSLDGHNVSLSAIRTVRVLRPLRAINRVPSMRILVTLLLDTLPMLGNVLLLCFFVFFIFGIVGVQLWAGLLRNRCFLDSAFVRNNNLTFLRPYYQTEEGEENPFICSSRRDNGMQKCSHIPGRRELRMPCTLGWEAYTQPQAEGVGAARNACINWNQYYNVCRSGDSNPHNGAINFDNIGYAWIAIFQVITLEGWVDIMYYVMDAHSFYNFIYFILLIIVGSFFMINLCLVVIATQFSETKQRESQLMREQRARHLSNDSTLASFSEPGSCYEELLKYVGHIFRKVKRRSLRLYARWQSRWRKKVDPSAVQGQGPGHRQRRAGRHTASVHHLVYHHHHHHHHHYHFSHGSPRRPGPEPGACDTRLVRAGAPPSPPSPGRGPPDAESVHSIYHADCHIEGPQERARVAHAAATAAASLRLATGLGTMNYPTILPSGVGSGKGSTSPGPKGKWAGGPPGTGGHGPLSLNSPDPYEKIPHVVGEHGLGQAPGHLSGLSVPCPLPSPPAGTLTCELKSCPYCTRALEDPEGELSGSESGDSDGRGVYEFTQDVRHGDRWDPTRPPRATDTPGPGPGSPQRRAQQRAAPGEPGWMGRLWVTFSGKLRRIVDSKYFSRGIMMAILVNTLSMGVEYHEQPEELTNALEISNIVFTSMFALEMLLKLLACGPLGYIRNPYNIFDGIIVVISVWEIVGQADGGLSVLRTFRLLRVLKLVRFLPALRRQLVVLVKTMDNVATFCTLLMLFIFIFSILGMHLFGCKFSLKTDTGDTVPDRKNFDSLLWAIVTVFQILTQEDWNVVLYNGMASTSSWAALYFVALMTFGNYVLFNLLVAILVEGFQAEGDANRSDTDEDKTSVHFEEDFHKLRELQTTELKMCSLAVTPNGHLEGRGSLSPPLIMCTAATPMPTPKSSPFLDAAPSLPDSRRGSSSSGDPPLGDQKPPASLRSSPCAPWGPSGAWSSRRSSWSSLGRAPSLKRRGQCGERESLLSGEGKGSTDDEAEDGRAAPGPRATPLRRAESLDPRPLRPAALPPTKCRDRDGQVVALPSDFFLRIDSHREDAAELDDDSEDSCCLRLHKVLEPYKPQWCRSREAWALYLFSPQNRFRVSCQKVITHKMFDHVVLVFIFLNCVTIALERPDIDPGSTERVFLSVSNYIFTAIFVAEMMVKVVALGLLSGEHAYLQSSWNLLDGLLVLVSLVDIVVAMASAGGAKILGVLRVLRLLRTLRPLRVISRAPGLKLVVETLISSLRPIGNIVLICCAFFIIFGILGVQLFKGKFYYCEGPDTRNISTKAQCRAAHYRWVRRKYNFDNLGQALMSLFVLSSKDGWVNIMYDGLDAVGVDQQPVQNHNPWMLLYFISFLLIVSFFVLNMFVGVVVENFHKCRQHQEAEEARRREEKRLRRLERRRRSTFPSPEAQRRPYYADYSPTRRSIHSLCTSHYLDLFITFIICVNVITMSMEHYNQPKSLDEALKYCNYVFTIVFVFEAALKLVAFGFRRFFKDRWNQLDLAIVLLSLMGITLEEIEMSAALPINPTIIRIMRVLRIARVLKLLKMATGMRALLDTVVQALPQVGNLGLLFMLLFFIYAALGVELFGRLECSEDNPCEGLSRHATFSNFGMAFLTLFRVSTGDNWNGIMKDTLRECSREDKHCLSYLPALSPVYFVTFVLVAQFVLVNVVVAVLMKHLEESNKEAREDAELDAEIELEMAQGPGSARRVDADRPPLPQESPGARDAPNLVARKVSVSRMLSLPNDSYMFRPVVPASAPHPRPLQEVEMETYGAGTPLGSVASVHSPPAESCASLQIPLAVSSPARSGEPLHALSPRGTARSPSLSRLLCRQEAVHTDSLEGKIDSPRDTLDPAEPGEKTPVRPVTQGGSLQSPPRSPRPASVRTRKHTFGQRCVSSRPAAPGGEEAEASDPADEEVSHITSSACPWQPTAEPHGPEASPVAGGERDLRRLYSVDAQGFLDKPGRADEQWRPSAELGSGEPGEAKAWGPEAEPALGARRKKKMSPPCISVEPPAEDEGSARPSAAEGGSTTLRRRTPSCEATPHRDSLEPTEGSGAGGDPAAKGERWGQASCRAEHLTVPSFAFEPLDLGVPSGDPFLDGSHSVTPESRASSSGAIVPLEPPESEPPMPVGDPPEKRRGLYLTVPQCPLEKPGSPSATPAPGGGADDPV

[11] = target: T5, Voltage-dependent T-type calcium channel subunit alpha-1H; assay type: functional

SMILES: O=C(Nc1cccc(NC(=O)N2CCN(c3ccccc3)CC2)c1)N1CCN(c2ccccc2)CC1
IC50 [1]: 25.1 µM (inactive)
IC50 [2]: > 66.2 µM (inactive)
AC50 [3]: 15.8 µM (inconclusive)
AC50 [4]: 48.9 µM (active)
IC50 [5]: 10.4 µM (inactive)
IC50 [6]: 11 µM (inactive)

IC50 [7]: 1.4 µM (active)
IC50 [8]: 5.7 µM (active)
SMILES: CC(C)c1ccc(-n2ncc(Cl)c(Oc3ccc(Cl)cc3)c2=O)cc1

SMILES: CC(C)NC(=O)c1c(O)c2ccccc2[nH]c1=O
IC50 [9]: 13.1 µM (active)

EC50 [10]: 2.35 µM (active)
EC50 [11]: 3.02 µM (active)
SMILES: O=S(=O)(NCc1ccccc1)c1ccc(S(=O)(=O)N(Cc2ccccn2)C2CCCC2)cc1

Source: ChEMBL document CHEMBL1201862, “PubChem BioAssay data set” (2004)
